Consider 14 compounds from patent US7585886B2, “Pyrrolidine derivative or salt thereof” (Astellas Pharma Inc., priority 2005, dated 2009).

Each structure is given as a SMILES string. Structures can show the parent of a compound that is named as a salt. Where two headings read alike, the source gives them in different places. Bounds are passed on as bounds.

Data set [1] concerns the target T1, human CaSR (Homo sapiens, UniProt P41180).
T1 construct: human CaSR open reading frame (ORF) was contained in the pcDNA3.1/Zeo(+) vector; expressed in transfected cells
T1 sequence (P41180 20-1078): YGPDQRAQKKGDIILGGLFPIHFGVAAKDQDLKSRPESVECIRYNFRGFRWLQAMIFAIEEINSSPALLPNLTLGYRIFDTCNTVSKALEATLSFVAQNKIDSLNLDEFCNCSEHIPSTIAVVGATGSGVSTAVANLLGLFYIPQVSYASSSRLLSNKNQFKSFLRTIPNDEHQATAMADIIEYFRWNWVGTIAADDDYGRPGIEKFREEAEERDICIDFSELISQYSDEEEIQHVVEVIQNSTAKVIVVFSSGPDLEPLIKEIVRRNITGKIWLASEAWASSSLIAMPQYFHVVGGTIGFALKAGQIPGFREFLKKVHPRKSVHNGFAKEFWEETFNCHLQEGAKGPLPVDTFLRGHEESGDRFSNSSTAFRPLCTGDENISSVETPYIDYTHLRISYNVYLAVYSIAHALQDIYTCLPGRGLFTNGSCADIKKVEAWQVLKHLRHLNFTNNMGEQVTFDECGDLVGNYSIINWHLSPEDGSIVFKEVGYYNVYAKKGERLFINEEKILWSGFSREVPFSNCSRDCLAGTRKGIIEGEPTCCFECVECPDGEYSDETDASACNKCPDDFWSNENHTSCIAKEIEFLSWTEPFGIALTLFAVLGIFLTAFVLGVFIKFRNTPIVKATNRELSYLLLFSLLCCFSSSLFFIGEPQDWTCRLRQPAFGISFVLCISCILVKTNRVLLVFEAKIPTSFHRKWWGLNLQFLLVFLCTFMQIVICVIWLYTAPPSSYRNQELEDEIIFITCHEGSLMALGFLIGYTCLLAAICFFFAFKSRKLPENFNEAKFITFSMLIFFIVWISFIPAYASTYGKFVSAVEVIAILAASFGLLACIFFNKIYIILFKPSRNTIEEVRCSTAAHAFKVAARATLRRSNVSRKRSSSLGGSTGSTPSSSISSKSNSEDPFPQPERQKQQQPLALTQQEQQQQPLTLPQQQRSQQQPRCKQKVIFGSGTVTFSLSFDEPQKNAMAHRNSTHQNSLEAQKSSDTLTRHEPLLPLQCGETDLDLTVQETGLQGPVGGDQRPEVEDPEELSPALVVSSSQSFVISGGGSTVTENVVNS
Kind of data set: Human calcium sensing receptor (CaSR) agonistic activity test (FLIPR, Fluo-3 intracellular Ca2+). In kind it is cell-based. An excerpt: Test 1. Human Calcium Sensing Receptor (CaSR) Agonistic Activity Test
• 1) Preparation of Human CaSR Expression Vector
A DNA fragment coding for human CaSR was cloned in the standard method. Illustratively, using 203 to 2387 of NM_000388 as a DNA fragment D4, and 2210 to 3633 as a DNA fragment B2, they were amplified using a human kidney cDNA (mfd. by Invitrogen) as the template and using a DNA polymerase (a registered trade name: Pyrobest, mfd. by Takara Bio), and respectively cloned into a pCR2.1 vector using a pCR2.1-Topo vector (mfd. by Invitrogen). Next, DNA fragments prepared by digesting pCR2.1-D4 with SpeI and XbaI were inserted into the same sites of pcDNA3.1/Zeo(+) vector. Successively, the fragments prepared by digesting pCR2.1-B2 with SacI and XbaI were inserted into the SacI and XbaI sites of previously prepared pcDNA3.1/Zeo(+)-D4 (SpeI-XbaI), thereby obtaining a human CaSR expression vector pcDNA3.1/Zeo(+)-hCaSR in which human CaSR open reading frame (ORF) was contained in the pcDNA3.1/Zeo(+) vector. • 2) Preparation of Human CaSR Expression Cell
The human CaSR expression vector was transferred into HEK 293 cell using a transfection reagent (registered trademark: FuGene 6, mfd. by Roche Diagnostics). After the gene transfer, this was cultured in DMEM (mfd. by Invitrogen) medium containing 40 μg/ml Zeocin (registered trademark) (mfd. by Invitrogen) and 10% fetal bovine serum at 37° C. for 2 weeks in the presence of 5% CO2, thereby obtaining Zeocin-resistant clones. An human CaSR stably expressing HEK 293 clone was obtained from these clones by selection using the responsiveness to extracellular Ca^2+ as the index. • 3) Human CaSR Agonistic Activity Test
The HEK 293 cell stably expressing human CaSR was inoculated into a poly-D-lysine-coated black clear bottom 96 well plate (mfd. by BD Bioscience). Hanks' balanced salt solution (HBSS) (Ca^2+ (−), Mg^2+ (−), mfd. by Invitrogen) containing 20 mM HEPES (2-[4-(2-hydroxyethyl)-1-piperazinyl]ethanesulfonic acid) buffer (pH 7.4), 2.5 mM probenecid (mfd. by Sigma) and 0.1% bovine serum albumin was prepared as a washing buffer. After the inoculation and subsequent overnight culturing, the medium was discarded, the washing buffer supplemented with 1 mM CaCl2 and 10 μM Fluo-3 AM (trade name, mfd by DOJINDO) was added thereto in 100 μl per well portions, and then the incubation was carried out at 37° C. for 1Hour in the presence of 5% CO2. This was washed twice with 200 μl of the washing buffer, replaced by 100 μl of the washing buffer supplemented with 0.5 mM CaCl2 and allowed to stand still for 10 minutes, and then the responsiveness to each compound to be evaluated was detected using a plate reader for fluorometry image analysis use (registered trademark: FLIPR, mfd. by Molecular Devices). In this connection, the compound to be evaluated was used by optionally diluting with the washing buffer supplemented with 0.5 mM Ca^2+.
The human CaSR agonistic activity strength of each compound to be evaluated was calculated by defining the solvent group as 0% and the 2 mM Ca^2+ in final concentration group as 100%, and the compound concentration showing 50% activity (EC50) was calculated from a concentration-activity curve by the method of least squares.

Data set [2] has as its target T2, CYP2D6 (Homo sapiens, UniProt P10635). In words: Human CYP2D6 inhibition test (fluorescence substrate AMMC). In kind it is in vitro ADME. More on the design: purchased BD Gentest 456217. The protocol:
Test 3. Human CYP2D6 Inhibition Test
Inhibitory activity evaluation for CYP2D6 was carried out by measuring it in accordance, roughly, with a reference (“Drug Metabolism and Disposition”, 2001, vol. 29, p. 1196-1200).
Final concentrations of the reagents in the enzyme reaction solution were respectively ser to CYP2D6=[…] (mfd. by BD Gentest, Cat. No.: 456217), reduced type nicotinamide adenine dinucleotide phosphate (NADPH) regeneration system (0.0081 mM nicotinamide adenine dinucleotide phosphate (NADP+), 0.41 mM glucose-6-phosphate, 0.41 mM MgCl2, […] glucose-6-phosphate dehydrogenase), and a fluorescence substrate AMMC=1.5 μM, 100 mM potassium phosphate buffer (pH 7.4). Each compound was made into a 50% acetonitrile solution and added to the enzyme reaction solution (acetonitrile final concentration 2.5%). The enzyme reaction was carried out at 37° C. for 30 minutes, the reaction was stopped using a stopping liquid (0.1 M tris(hydroxymethyl)aminomethane (Tris-base):acetonitrile=20:80), and then fluorescence intensity was measured. The concentration showing 50% inhibition (IC50) was calculated from the thus obtained fluorescence intensity, by defining the enzyme activity at the time of no compound addition as 100%.

Data set [3] can be described thus: Measurement of rat plasma calcium concentration after single oral administration. It is filed as in vivo. The settings on record: normal male rats, 3 mg/kg oral administration. The protocol:
Test 2. Measurement of Rat Plasma Calcium Concentration and Plasma PTH Concentration
The compounds of the invention were administered to rats, and their influences upon the plasma calcium concentration and plasma PTH concentration were examined. The test was carried out by single oral administration of the compounds 5 or 6 normal male rats.
As a vehicle group, an MC solution prepared by adding 0.5% methyl cellulose (MC) solution or ethanol to a final concentration of 5% was administered at a dose of 5 ml/kg. As the comparative control, cinacalcet was dissolved in the MC solution and administered at a dose of 3 mg/kg. Each of the compounds, of the invention was dissolved or suspended the MC solution, or dissolved in ethanol and then diluted with the MC solution as occasion demands, and administered at a dose of 1, 3 or 10 mg/kg.
Blood samples were collected from the orbital venous plexus under ether anesthesia before the administration and 2Hours, 4Hours, or 8Hours in some cases, after the administration, and the plasma calcium concentration was measured using Calcium E-Test Wako (mfd. by Wako Pure Chemical Industries), and the plasma PTH concentration using Rat Intact PTH ELISA Kit (mfd. by Immutopics) or Rat Bioactive Intact PTH ELISA Kit (mfd. by Immutopics).

In data set [4] the target is T2, CYP2D6. Particulars: reported, Non-patent Reference 4; cited from earlier work.
Setting [5] is: HEK 293 cell stably expressing human CaSR, 0.5 mM Ca2+ buffer, solvent group 0%, 2 mM Ca2+ group 100%, read-out: EC50 (compound concentration showing 50% activity), human CaSR agonistic activity.
Where [6] appears, read: recombinant CYP2D6, AMMC 1.5 μM, 37° C. 30 minutes, read-out: IC50 (concentration showing 50% inhibition), CYP2D6.

T2 sequence (P10635 whole entry): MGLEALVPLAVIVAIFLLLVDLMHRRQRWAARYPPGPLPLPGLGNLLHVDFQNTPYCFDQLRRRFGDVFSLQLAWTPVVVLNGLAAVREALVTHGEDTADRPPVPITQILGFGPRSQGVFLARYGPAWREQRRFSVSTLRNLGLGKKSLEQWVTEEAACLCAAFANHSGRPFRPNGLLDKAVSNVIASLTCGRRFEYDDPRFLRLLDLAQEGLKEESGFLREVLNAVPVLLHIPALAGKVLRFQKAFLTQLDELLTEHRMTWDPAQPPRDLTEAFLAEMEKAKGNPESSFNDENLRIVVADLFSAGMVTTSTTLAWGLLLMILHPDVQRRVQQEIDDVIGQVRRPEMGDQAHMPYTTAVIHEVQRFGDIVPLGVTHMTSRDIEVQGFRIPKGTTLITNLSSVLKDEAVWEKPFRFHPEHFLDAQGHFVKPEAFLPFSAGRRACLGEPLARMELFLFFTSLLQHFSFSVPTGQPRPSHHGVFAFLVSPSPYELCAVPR

On to `C[C@@H](NC[C@H]1CN(C(=O)c2ccc(-c3ccsc3C(=O)O)o2)C[C@@H]1c1ccccc1)c1cccc2ccccc12` [Example 98], for which, in data set [1] (setting [5]), the EC50 was 5.2 nM. The IC50 in data set [2] (setting [6]) was ≥ 6000 nM. On to `CC(NC[C@H]1CN(C(=O)Oc2ccc(C(=O)O)cc2)C[C@@H]1c1ccccc1)c1csc2ccccc12` (stereo partly shown) [compound 53], for which the EC50 in data set [1] (setting [5]) amounted to 5.2 nM.

Consider `C[C@@H](NC[C@H]1CN(c2c(F)cc(C(=O)O)cc2F)C[C@@H]1c1ccccc1)c1cccc2ccccc12` [Example 31, 3,5-difluoro-4-[(3S,4S)-3-({[(1R)-1-(1-naphthyl)ethyl]amino}methyl)-4-phenylpyrrolidin-1-yl]benzoic acid hydrochloride], for which, in data set [1] (setting [5]), the EC50 worked out at 3.6 nM. In addition, the IC50 at 30 min in data set [2] (human, recombinant CYP2D6 (BD Gentest, Cat. No. 456217), pH 7.4, probe AMMC 1.5 μM, recombinant CYP2D6, AMMC 1.5 μM, 37° C. 30 minutes, read-out: IC50 (concentration showing 50% inhibition), CYP2D6) was ≥ 6000 nM.

As to `Cc1cccc([C@H]2CN(c3c(F)cc(C(=O)O)cc3F)C[C@@H]2CN[C@H](C)c2cccc3ccccc23)c1` [Example 171], the EC50 in data set [1] (setting [5]) was 16 nM. Moreover, the “Rat plasma calcium concentration reducing ratio (%) 4 hours after administration” value in data set [3] worked out at 20%. For `C[C@@H](NC[C@H]1CN(C(=O)CC(C)(C)CC(=O)O)C[C@@H]1c1ccccc1)c1cccc2ccccc12` [Example 109], in data set [1] (setting [5]), the EC50 came to 28 nM. Also, the “Rat plasma calcium concentration reducing ratio (%) 4 hours after administration” value in data set [3] is given as 17%. Also, the IC50 in data set [2] (setting [6]) is ≥ 6000 nM. With `C[C@@H](NC[C@H]1CN(C(=O)Nc2ccc(C(=O)O)cc2)C[C@@H]1c1ccccc1)c1cccc2ccccc12` [Example 41, 4-({[(3S,4S)-3-({[(1R)-1-(1-naphthyl)ethyl]amino}methyl)-4-phenylpyrrolidin-1-yl]carbonyl}amino)benzoic acid hydrochloride], in data set [1] (setting [5]), the EC50 was 4.9 nM. Besides, the IC50 in data set [2] (setting [6]) was ≥ 6000 nM. In the case of `C[C@@H](NC[C@H]1CN(C(=O)Oc2ccc(C(=O)O)cc2)C[C@@H]1c1cccc(F)c1F)c1cccc2ccccc12` [Example 179], the EC50 in data set [1] was 0.77 nM. Further, in data set [2], the IC50 was ≥ 6000 nM. For the compound `C[C@@H](NC[C@H]1CN(C(=O)Oc2ccc(C(=O)O)cc2)C[C@@H]1c1ccccc1)c1cccc2ccccc12.Cl` [Example 33, 4-({[(3S,4S)-3-({[(1R)-1-(1-naphthyl)ethyl]amino}methyl)-4-phenylpyrrolidin-1-yl]carbonyl}oxy)benzoic acid hydrochloride], the EC50 in data set [1] was 2.3 nM. In addition, in data set [3], the “Rat plasma calcium concentration reducing ratio (%) 4 hours after administration” value came to 21%. For the compound `COc1cc(C(=O)O)ccc1NC(=O)N1C[C@H](CN[C@H](C)c2cccc3ccccc23)[C@@H](c2cccc(C)c2)C1` [Example 183], the EC50 in data set [1] (setting [5]) is 3.5 nM. Further, in data set [3], the “Rat plasma calcium concentration reducing ratio (%) 4 hours after administration” value is listed as 20%. Further, the IC50 in data set [2] (setting [6]) is ≥ 6000 nM. Consider `COc1cc(C(=O)O)ccc1NC(=O)N1C[C@H](CN[C@H](C)c2cccc3ccccc23)[C@@H](c2ccccc2)C1` [Example 45, 3-methoxy-4-({[(3S,4S)-3-({[(1R)-1-(1-naphthyl)ethyl]amino}methyl)-4-phenylpyrrolidin-1-yl]carbonyl}amino)benzoic acid hydrochloride], for which the EC50 in data set [1] (setting [5]) was 3.1 nM. Also, in data set [2] (setting [6]), the IC50 was ≥ 6000 nM. With `C[C@@H](NCCCc1cccc(C(F)(F)F)c1)c1cccc2ccccc12` [cinacalcet], in data set [4], the “activity to inhibit CYP2D6 (in words)” value was “strong activity to inhibit CYP2D6”.

Take `C[C@@H](NC[C@H]1CN(C(=O)CCCCC(=O)O)C[C@@H]1c1cccc(C(F)(F)F)c1)c1cccc2ccccc12` [Example 48, 6-{(3S,4S)-3-({[(1R)-1-(1-naphthyl)ethyl]amino}methyl)-4-[3-(trifluoromethyl)phenyl]pyrrolidin-1-yl}-6-oxohexanoic acid hydrochloride]: in data set [1] (setting [5]), the EC50 stood at 4 nM. Take `C[C@@H](NC[C@H]1CN(C(=O)Oc2ccc(C(=O)O)cc2)C[C@@H]1c1cccc(F)c1)c1cccc2ccccc12` [Example 174]: in data set [1], the EC50 turned out to be 3.4 nM. Consider `C[C@@H](NC[C@H]1CN(c2ccc(-c3nnn[nH]3)cc2)C[C@@H]1c1ccccc1)c1cccc2ccccc12` [Example 130], for which the EC50 in data set [1] (setting [5]) came to 15 nM.
